Blank lines part the entries; values can stand above or below the compound they belong to. Peptide text beside a SMILES is read from it. * marks the point of attachment. Dansyl = CN(C)c1cccc2c(S(=O)(=O)*)cccc12
How the values were obtained:
Dnc-PR20/Kapβ2 = experiment: Screening for DPRs-Kapβ2 binding inhibitors with additives (probe fluorescence attenuation); parameters: species or system human; conditions: Dnc-PR20 300 nM, Kapβ2 400 nM
Experimental: A buffer solution (20 mM Tris-HCl (pH 7.5), 150 mM NaCl, and 2 mM DTT (final concentration)) was used to prepare a mixture of Dnc-PR20 (final concentration 300 nM) and Kapβ2 (final concentration 400 nM), and an automatic dispensing system (Andrew+, Andrew Alliance) was used to add 20 µL/well of each to a 384-well microplate (Corning, 3820). After incubation at 35°C for 10 min, the fluorescence intensity (fluorescence wavelength: 520 nm) and fluorescence spectrum (fluorescence wavelength: 400-700 nm) were measured at an excitation wavelength of 340 nm using a microplate reader (Cytation 5, BioTek). Then, 5 µL/well of various concentrations of additives (poly K50 or IgG/pure water) were added using an automated pipetting system, and after incubation at 35°C for 10 minutes, the fluorescence intensity and fluorescence spectrum were measured under the same conditions. As a control, the Dnc-PR20 solution without Kapβ2 was measured for fluorescence intensity and fluorescence spectrum in the same manner.
In addition to poly K50 and IgG, the 520 nm fluorescence intensity of Dnc-PR20 was measured with PAMAM, GST-M9M, RanGTP, ATP, and HSA as additives, using the same procedure as in Section 6 above.

Kapβ2 = experiment: Kapβ2-induced fluorescence change of dansyl-DPR probes; type: binding, human; conditions: for fluorescence intensity / spectrum change on addition of Kapβ2: various Kapβ2 concentrations
Experimental: (§1) A buffer solution (20 mM Tris-HCl (pH 7.5), 150 mM NaCl, and 2 mM DTT (final concentration)) was used to prepare the probe solutions (final concentration 300 nM) for probes 1 to 7 above. Each probe solution was added to a 384-well microplate (Corning, 3575) at 30 µL/well using an automated pipetting system (Andrew+, Andrew Alliance). After incubation at 35°C for 10 min, fluorescence intensity (fluorescence wavelength: 520 nm) and fluorescence spectrum (fluorescence wavelength: 400-700 nm) at an excitation wavelength of 340 nm were measured using a microplate reader (Cytation 5, BioTek). Then, various concentrations of Kapβ2 solution (Kapβ2/pure water) were added to the 384-well microplate at 30 µL/well using an automated pipetting system. After incubation at 35°C for 10 minutes, fluorescence intensity and fluorescence spectrum were measured under the same conditions as above.

β-lactoglobulin = experiment: Fluorescence change of probes by various proteins: β-lactoglobulin; type: binding, bovine; conditions: for fluorescence spectrum / 540 nm fluorescence intensity change on addition of β-lactoglobulin: 1600 nM protein solution, probe 300 nM
Experimental: as §1
(§2) The fluorescence intensity and fluorescence spectra of Dnc-PR20 (probe 1) and Dnc-GP20 (probe 2) were measured using the same procedure as described in Section 2 above, except that aqueous solutions (1600 nM) of bovine milk-derived β-lactoglobulin, human serum-derived α1-antitrypsin, human serum-derived albumin (HSA), human serum-derived apotransferrin, chicken egg white-derived lysozyme, or human serum-derived immunoglobulin G (IgG) were used in place of the Kapβ2 solution.

[1] = tested on: α1-antitrypsin, albumin (HSA), apotransferrin, lysozyme, immunoglobulin G (IgG); experiment: Fluorescence change of probes by various proteins: other control proteins; type: binding, human; chicken; conditions: 1600 nM protein solutions; probe 300 nM
Experimental: as §1, §2

MBP-FUS = experiment: FUS-induced fluorescence change of dansyl-DPR probes; type: binding, human; conditions: for fluorescence intensity / spectrum change on addition of MBP-FUS: various MBP-FUS concentrations
Experimental: as §1
The same procedure as in Section 2 above was used, except that MBP-tagged FUS (MBP-FUS) solution (MBP-FUS/pure water) was used in place of the Kapβ2 solution, to measure the fluorescence intensity and fluorescence spectra of Dnc-PR20 (probe 1) and Dnc-GP20 (probe 2).

Impβ = experiment: Fluorescence change of probes by LLPS-related proteins: Impβ; type: binding, human; conditions: Impβ solution 1600 nM (Figure 8)
Experimental: as §1
(§3) In addition to the proteins tested in Sections 2 to 4 above, aqueous solutions of proteins that may be relevant to the formation or control of liquid-liquid phase separation (LLPS) were used to measure the 520 nm fluorescence intensity of Dnc-PR20 (probe 1) and Dnc-GP20 (probe 2). The following proteins were used as proteins that may be associated with the formation or regulation of LLPS were Imb-2, hnRNPA2LC, PPIA, Impα, Impβ, GST-M9M, and RanGTP. […]

Imb-2 = experiment: Fluorescence change of probes by LLPS-related proteins: Imb-2; type: binding, C. elegans; conditions: Imb-2 solution 800 nM (Figure 8)
Experimental: as §1, §3

Impα = experiment: Fluorescence change of probes by LLPS-related proteins: Impα; type: binding, human; conditions: Impα solution 1600 nM (Figure 8)
Experimental: as §1, §3

[2] = probe 300 nM, excitation 340 nm

additive concentration resulting in a fluorescence intensity comparable to that of the control (Dnc-PR20/Kapβ2; control = Dnc-PR20 solution without Kapβ2): 200 nM
520 nm fluorescence intensity change of Dnc-PR20 in Dnc-PR20/Kapβ2 mixture (Dnc-PR20/Kapβ2; various additives (Figure 10)): attenuated
Compound: 50-mer polylysine [poly K50]
fluorescence intensity change of Dnc-PR20 in Dnc-PR20/Kapβ2 solution (Dnc-PR20/Kapβ2; additive 0-300 nM): decreased in a poly K50 concentration-dependent manner

Compound: CN(C)c1cccc2c(S(=O)(=O)NCC(=O)N3CCC[C@H]3C(=O)NCC(=O)N3CCC[C@H]3C(=O)NCC(=O)N3CCC[C@H]3C(=O)NCC(=O)N3CCC[C@H]3C(=O)NCC(=O)N3CCC[C@H]3C(=O)NCC(=O)N3CCC[C@H]3C(=O)NCC(=O)N3CCC[C@H]3C(=O)NCC(=O)N3CCC[C@H]3C(=O)NCC(=O)N3CCC[C@H]3C(=O)NCC(=O)N3CCC[C@H]3C(=O)O)cccc12 [Dnc-GP10, Dansyl-NH-(Gly-Pro)10-COOH] (Dansyl-GPGPGPGPGPGPGPGPGPGP-OH)
fluorescence intensity / spectrum change on addition of Kapβ2 (Kapβ2; [2]): unchanged

Compound: CN(C)c1cccc2c(S(=O)(=O)NCC(=O)N3CCC[C@H]3C(=O)NCC(=O)N3CCC[C@H]3C(=O)NCC(=O)N3CCC[C@H]3C(=O)NCC(=O)N3CCC[C@H]3C(=O)NCC(=O)N3CCC[C@H]3C(=O)NCC(=O)N3CCC[C@H]3C(=O)NCC(=O)N3CCC[C@H]3C(=O)NCC(=O)N3CCC[C@H]3C(=O)NCC(=O)N3CCC[C@H]3C(=O)NCC(=O)N3CCC[C@H]3C(=O)NCC(=O)N3CCC[C@H]3C(=O)NCC(=O)N3CCC[C@H]3C(=O)NCC(=O)N3CCC[C@H]3C(=O)NCC(=O)N3CCC[C@H]3C(=O)NCC(=O)N3CCC[C@H]3C(=O)NCC(=O)N3CCC[C@H]3C(=O)NCC(=O)N3CCC[C@H]3C(=O)NCC(=O)N3CCC[C@H]3C(=O)NCC(=O)N3CCC[C@H]3C(=O)NCC(=O)N3CCC[C@H]3C(=O)O)cccc12 [Dnc-GP20, Dansyl-NH-(Gly-Pro)20-COOH] (Dansyl-GPGPGPGPGPGPGPGPGPGPGPGPGPGPGPGPGPGPGPGP-OH)
fluorescence spectrum / 540 nm fluorescence intensity change on addition of β-lactoglobulin (β-lactoglobulin): did not exhibit substantial changes
fluorescence spectrum change on addition of the other proteins [1]: did not exhibit substantial changes
fluorescence intensity / spectrum change on addition of Kapβ2 (Kapβ2; [2]): little changed
fluorescence intensity / spectrum change on addition of MBP-FUS (MBP-FUS; [2]): hardly changed

Compound: CN(C)c1cccc2c(S(=O)(=O)NCC(=O)N[C@@H](CCCNC(=N)N)C(=O)NCC(=O)N[C@@H](CCCNC(=N)N)C(=O)NCC(=O)N[C@@H](CCCNC(=N)N)C(=O)NCC(=O)N[C@@H](CCCNC(=N)N)C(=O)NCC(=O)N[C@@H](CCCNC(=N)N)C(=O)NCC(=O)N[C@@H](CCCNC(=N)N)C(=O)NCC(=O)N[C@@H](CCCNC(=N)N)C(=O)NCC(=O)N[C@@H](CCCNC(=N)N)C(=O)NCC(=O)N[C@@H](CCCNC(=N)N)C(=O)NCC(=O)N[C@@H](CCCNC(=N)N)C(=O)O)cccc12 [Dnc-GR10, Dansyl-NH-(Gly-Arg)10-COOH] (Dansyl-GRGRGRGRGRGRGRGRGRGR-OH)
fluorescence intensity / spectrum change on addition of Kapβ2 (Kapβ2; [2]): increased in a Kapβ2 concentration-dependent manner

Compound: C[C@H](NC(=O)[C@@H]1CCCN1C(=O)[C@H](C)NC(=O)[C@@H]1CCCN1C(=O)[C@H](C)NC(=O)[C@@H]1CCCN1C(=O)[C@H](C)NC(=O)[C@@H]1CCCN1C(=O)[C@H](C)NC(=O)[C@@H]1CCCN1C(=O)[C@H](C)NC(=O)[C@@H]1CCCN1C(=O)[C@H](C)NC(=O)[C@@H]1CCCN1C(=O)[C@H](C)NC(=O)[C@@H]1CCCN1C(=O)[C@H](C)NC(=O)[C@@H]1CCCN1C(=O)[C@H](C)NC(=O)[C@@H]1CCCN1S(=O)(=O)c1cccc2c(N(C)C)cccc12)C(=O)O [Dnc-PA10, Dansyl-NH-(Pro-Ala)10-COOH] (Dansyl-PAPAPAPAPAPAPAPAPAPA-OH)
fluorescence intensity / spectrum change on addition of Kapβ2 (Kapβ2; [2]): unchanged

Compound: CN(C)c1cccc2c(S(=O)(=O)N3CCC[C@H]3C(=O)N[C@@H](CCCNC(=N)N)C(=O)N3CCC[C@H]3C(=O)N[C@@H](CCCNC(=N)N)C(=O)N3CCC[C@H]3C(=O)N[C@@H](CCCNC(=N)N)C(=O)N3CCC[C@H]3C(=O)N[C@@H](CCCNC(=N)N)C(=O)N3CCC[C@H]3C(=O)N[C@@H](CCCNC(=N)N)C(=O)N3CCC[C@H]3C(=O)N[C@@H](CCCNC(=N)N)C(=O)N3CCC[C@H]3C(=O)N[C@@H](CCCNC(=N)N)C(=O)N3CCC[C@H]3C(=O)N[C@@H](CCCNC(=N)N)C(=O)N3CCC[C@H]3C(=O)N[C@@H](CCCNC(=N)N)C(=O)N3CCC[C@H]3C(=O)N[C@@H](CCCNC(=N)N)C(=O)O)cccc12 [Dnc-PR10, Dansyl-NH-(Pro-Arg)10-COOH] (Dansyl-PRPRPRPRPRPRPRPRPRPR-OH)
fluorescence intensity / spectrum change on addition of Kapβ2 (Kapβ2; [2]): increased in a Kapβ2 concentration-dependent manner

Compound: CN(C)c1cccc2c(S(=O)(=O)N3CCC[C@H]3C(=O)N[C@@H](CCCNC(=N)N)C(=O)N3CCC[C@H]3C(=O)N[C@@H](CCCNC(=N)N)C(=O)N3CCC[C@H]3C(=O)N[C@@H](CCCNC(=N)N)C(=O)N3CCC[C@H]3C(=O)N[C@@H](CCCNC(=N)N)C(=O)N3CCC[C@H]3C(=O)N[C@@H](CCCNC(=N)N)C(=O)N3CCC[C@H]3C(=O)N[C@@H](CCCNC(=N)N)C(=O)N3CCC[C@H]3C(=O)N[C@@H](CCCNC(=N)N)C(=O)N3CCC[C@H]3C(=O)N[C@@H](CCCNC(=N)N)C(=O)N3CCC[C@H]3C(=O)N[C@@H](CCCNC(=N)N)C(=O)N3CCC[C@H]3C(=O)N[C@@H](CCCNC(=N)N)C(=O)N3CCC[C@H]3C(=O)N[C@@H](CCCNC(=N)N)C(=O)N3CCC[C@H]3C(=O)N[C@@H](CCCNC(=N)N)C(=O)N3CCC[C@H]3C(=O)N[C@@H](CCCNC(=N)N)C(=O)N3CCC[C@H]3C(=O)N[C@@H](CCCNC(=N)N)C(=O)N3CCC[C@H]3C(=O)N[C@@H](CCCNC(=N)N)C(=O)N3CCC[C@H]3C(=O)N[C@@H](CCCNC(=N)N)C(=O)N3CCC[C@H]3C(=O)N[C@@H](CCCNC(=N)N)C(=O)N3CCC[C@H]3C(=O)N[C@@H](CCCNC(=N)N)C(=O)N3CCC[C@H]3C(=O)N[C@@H](CCCNC(=N)N)C(=O)N3CCC[C@H]3C(=O)N[C@@H](CCCNC(=N)N)C(=O)O)cccc12 [Dnc-PR20, Dansyl-NH-(Pro-Arg)20-COOH] (Dansyl-PRPRPRPRPRPRPRPRPRPRPRPRPRPRPRPRPRPRPRPR-OH)
fluorescence spectrum / 540 nm fluorescence intensity change on addition of β-lactoglobulin (β-lactoglobulin): slightly increased
520 nm fluorescence (β-lactoglobulin; β-lactoglobulin solution 1600 nM (Figure 8)): above 1000
520 nm fluorescence (Impβ): above 1000
fluorescence spectrum change on addition of the other proteins [1]: did not exhibit substantial changes
520 nm fluorescence (Imb-2): above 1000
520 nm fluorescence (Impα): above 1000
540 nm fluorescence intensity increase compared to the fluorescence intensity at 0 nM Kapβ2 (Kapβ2; 1600 nM Kapβ2, probe 300 nM, excitation 340 nm): approximately 6.1 fold
520 nm fluorescence (Kapβ2; Kapβ2 solution 1600 nM (Figure 8)): above 1000
fluorescence intensity / spectrum change on addition of Kapβ2 (Kapβ2; [2]): increased in a Kapβ2 concentration-dependent manner
540 nm fluorescence intensity increase compared to the fluorescence intensity at 0 nM MBP-FUS (MBP-FUS; 1600 nM MBP-FUS, probe 300 nM, excitation 340 nm): approximately 4.6 fold
520 nm fluorescence (MBP-FUS; MBP-FUS solution 1600 nM (Figure 8)): above 1000
fluorescence intensity / spectrum change on addition of MBP-FUS (MBP-FUS; [2]): increased in an MBP-FUS concentration-dependent manner

Compound: Dansyl-NH-(Gly-Ala)19-COOH (Dansyl-GAGAGAGAGAGAGAGAGAGA-OH) [Dnc-GA10]
fluorescence intensity / spectrum change on addition of Kapβ2 (Kapβ2; [2]): unchanged
